According to patent publication US20260258032A1, “TYROSINE KINASE 2 INHIBITORS AND USES THEREOF” (BIOGEN MA INC., priority 2022, published 2026):
Counter-ions that a name gives are not always drawn.

Legend:
JH2 domain of human Tyk2 = biological target: T1, JH2 domain of human Tyk2 (Homo sapiens, UniProt P29597); assay: JH2 biochemical assay (TR-FRET probe displacement); assay type: binding; settings: JH2 biochemical assay
T1 construct: 10×His-tagged TYK2 JH2 domain (amino acid 575-876)
Procedure, shortened: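 10×His-tagged human TYK2 JH2 (aa 575-876, 2 nM) incubated 60 min with 2 nM fluorescent probe, 0.1 nM Tb anti-His antibody and compound (10-point 3-fold series from […] top). TR-FRET 520/495 nm ratio, falling with probe displacement, normalized and fitted to a 4-parameter logistic for IC50.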

[1] = test system: Tyk2 kinase activity on STAT4; assay: pSTAT4 cell assay (MSD, NK92 cells); assay type: cell-based; settings: compounds 1 hr, stimulated 15 minutes
Procedure, shortened: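 IC50 values derive from 4-parameter logistic fits of normalized percent activity against log compound concentration. Phospho-STAT was measured by MSD with anti-STAT4 antibodies after 15 min of 30 ng/mL IL2 in serum-starved NK92 cells pretreated 1 hr with compound.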

[2] = test system: JAK1 kinase activity on STAT3; assay: pSTAT3 cell assay (MSD, TF1 cells, IL-6 stimulated); assay type: cell-based; settings: Homo sapiens, TF-1, compounds 1 hour, 30 ng/mL IL-6 for 15 minutes
Procedure: The inhibitory potency of compounds of the disclosure against the JAK1 kinase activity on STAT3 was evaluated using an MSD-platform plate-based assay format. TF1 cells natively expressing STAT3 and JAK1 were serum-starved to reduce background phosphorylation levels, then cells were treated with compounds of the disclosure for 1 hour with a 10-point four-fold dilution series starting at 10 μM. Cells were then stimulated with 30 ng/mL interleukin 6 (IL-6) for 15 minutes. Cells were lysed and pSTAT3 levels were quantitated using an MSD plate-based assay with anti-STAT3 antibodies. The data were normalized and the percent activity versus log concentration of compound was fitted with a 4-parameter logistic model to generate IC50 curves.

[3] = test system: JAK2 kinase activity on STAT5; assay: pSTAT5 cell assay (MSD, TF1 cells, IL-3 stimulated); assay type: cell-based; settings: Homo sapiens, TF-1, compounds 1 hour, 30 ng/mL IL-3 for 15 minutes
Procedure: Compounds of the disclosure were assessed for their ability to inhibit the JAK2 kinase activity on STAT5 utilizing an MSD-platform plate-based assay format. TF1 cells natively expressing STAT5 and JAK2 were serum-starved to reduce background phosphorylation levels, then cells were treated with compounds of disclosure for 1 hour with a 10-point four-fold dilution series starting at 10 μM. Cells were then stimulated with 30 ng/mL IL-3 for 15 minutes. Cells were then lysed and pSTAT5 levels were quantitated using an MSD plate-based assay with anti-STAT5 antibodies. The data were normalized and the percent activity versus log concentration of compound was fitted with a 4-parameter logistic model to generate a curve and an IC50 value.

T1 sequence (P29597 575-876): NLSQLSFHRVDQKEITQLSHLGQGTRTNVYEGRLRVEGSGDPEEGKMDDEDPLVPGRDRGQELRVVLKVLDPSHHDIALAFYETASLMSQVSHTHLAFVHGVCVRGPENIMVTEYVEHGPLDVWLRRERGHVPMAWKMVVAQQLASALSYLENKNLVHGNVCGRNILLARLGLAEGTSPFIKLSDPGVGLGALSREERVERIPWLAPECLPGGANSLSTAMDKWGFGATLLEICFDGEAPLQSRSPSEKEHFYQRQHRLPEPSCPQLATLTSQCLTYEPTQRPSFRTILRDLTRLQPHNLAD

SMILES	IC50 (JH2 domain of human Tyk2) [nM]	IC50 [1] [nM]	IC50 [2] [nM]	IC50 [3] [nM]
CC(=O)Nc1cc2c(cn1)C1(CC1)CN2c1cccc(C2(F)COC2)n1 [Example 85, N-(1′-(6-(3-fluorooxetan-3-yl)pyridin-2-yl)-1′,2′-dihydrospiro[cyclopropane-1,3′-pyrrolo[3,2-c]pyridin]-6′-yl)acetamide]	10 to 100	≥ 1000	≥ 1000	≥ 1000
COC1(c2cccc(N3CC4(CC4)c4cnc(NC(C)=O)cc43)n2)COC1 [Example 87, N-(1′-(6-(3-methoxyoxetan-3-yl)pyridin-2-yl)-1′,2′-dihydrospiro[cyclopropane-1,3′-pyrrolo[3,2-c]pyridin]-6′-yl)acetamide]	10 to 100	≥ 1000	≥ 1000	≥ 1000
CC(=O)Nc1cc2c(cn1)C1(CC1)CN2c1cc(C)nc(C(C)(F)F)n1 [Example 88, N-(1′-(2-(1,1-difluoroethyl)-6-methylpyrimidin-4-yl)-1′,2′-dihydrospiro[cyclopropane-1,3′-pyrrolo[3,2-c]pyridin]-6′-yl)acetamide]	≤ 10	10 to 100	≥ 1000	≥ 1000
CCC(=O)Nc1cc2c(cn1)C1(CC1)CN2c1cccc(C(C)(F)F)n1 [Example 90, N-(1′-(6-(1,1-difluoroethyl)pyridin-2-yl)-1′,2′-dihydrospiro[cyclopropane-1,3′-pyrrolo[3,2-c]pyridin]-6′-yl)propionamide]	≤ 10	10 to 100	≥ 1000	≥ 1000
CC(=O)Nc1cc2c(cn1)C1(CC1)CN2c1cc(-c2cnn(C)c2)nc(C(C)(F)F)n1 [Example 238, N-(1′-(2-(1,1-difluoroethyl)-6-(1-methyl-1H-pyrazol-4-yl)pyrimidin-4-yl)-1′,2′-dihydrospiro[cyclopropane-1,3′-pyrrolo[3,2-c]pyridin]-6′-yl)acetamide]	≤ 10	≤ 10	≥ 1000	≥ 1000
CC(=O)Nc1cc2c(cn1)C1(CCN(C)CC1)CN2c1nccc(C(C)(F)F)n1 [Example 274, N-(1′-(4-(1,1-difluoroethyl)pyrimidin-2-yl)-1-methyl-1′,2′-dihydrospiro[piperidine-4,3′-pyrrolo[3,2-c]pyridin]-6′-yl)acetamide trifluorocetate]	100 to 1000	≥ 1000	≥ 1000	≥ 1000
CC(=O)Nc1cc2c(cn1)C1(CCN(C)CC1)CN2c1ccnc(C(C)(F)F)n1 [Example 275, N-(1′-(2-(1,1-difluoroethyl)pyrimidin-4-yl)-1-methyl-1′,2′-dihydrospiro[piperidine-4,3′-pyrrolo[3,2-c]pyridin]-6′-yl)acetamide trifluoroacetate]	≥ 1000	≥ 1000	≥ 1000	≥ 1000
CNC(=O)Nc1cc2c(cn1)C1(CC1)CN2c1cc(C)nc(C(C)(F)F)n1 [Example 307, 1-(1′-(2-(1,1-difluoroethyl)-6-methylpyrimidin-4-yl)-1′,2′-dihydrospiro[cyclopropane-1,3′-pyrrolo[3,2-c]pyridin]-6′-yl)-3-methylurea]	≤ 10	10 to 100	≥ 1000	≥ 1000
Cc1cc(N2CC3(CC3)c3cnc(NC(N)=O)cc32)nc(C(C)(F)F)n1 [Example 308, 1-(1′-(2-(1,1-difluoroethyl)-6-methylpyrimidin-4-yl)-1′,2′-dihydrospiro[cyclopropane-1,3′-pyrrolo[3,2-c]pyridin]-6′-yl)urea]	≤ 10	≤ 10	≥ 1000	≥ 1000
CCc1cc(N2CC3(CC3)c3cnc(NC(C)=O)cc32)nc(C23COC(C2)C3)n1 [Example 322, N-(1′-(2-(2-oxabicyclo[2.1.1]hexan-4-yl)-6-ethylpyrimidin-4-yl)-1′,2′-dihydrospiro[cyclopropane-1,3′-pyrrolo[3,2-c]pyridin]-6′-yl)acetamide]	≤ 10	10 to 100	≥ 1000	≥ 1000
